Measurements taken from US20260191817A1, “FIBROBLAST MODULATORS IN STROMA-RICH TUMORS” (UNIVERSITEIT GENT, priority 2022, published 2026).
Entries after “also recorded” stand apart in the source; their conditions may differ.

Legend:
13B2 hTERT breast CAFs = experiment: AFM spheroid stiffness, 13B2 hTERT breast CAFs; type: cell-based, human; conditions: for Young's modulus / spheroid stiffness: 1 μM, 48 h during spheroid formation
Text: (§1) It is well established that an increased tumor and ECM stiffness is associated with a negative prognosis as it promotes tumor growth, progression, therapy resistance, immunosuppression and metastasis. Stiffness is chiefly regulated by the action of the CAFs in the TME. Stiffness modulation is, therefore, a fitting read-out of activity in a screen for CAF modulators. To assess stiffness modulation, the stiffness of spheroids of CAF cells treated with test compounds was interrogated using atomic force microscopy (AFM) indentation and compared with untreated cells. AFM measurement of the stiffness (elasticity) of cells and spheroids is a technique well-known to those skilled in the art. AFM measures the force required to create a given deflection, this read-out is also known as the Young's modulus. AFM is widely used in biology and cancer research: altered physicochemical properties of live cells serve as a read-out of altered complex physiological processes.
(§2) U-shaped, 384-well ULA plates (cat. no. MS-9384UZ, S-bio) were seeded with a suspension of cell-specific culture media with cells. Cells were allowed to form spheroids for an appropriate time under treatment conditions before use in experiments. Cell culture dishes (cat. no. 734-2814, VWR) were filled with collagen gel and placed at 37° C. for an appropriate time to allow solidification. For each condition, spheroids were pooled in one cell culture dish. The medium was removed (stored at 37° C.) to promote attachment of the bottom of each spheroid to the collagen gel. The cell culture dishes were incubated at 37° C. After the incubation period, the stored medium was carefully (prevent detachment of spheroids) added to the dishes.
(§3) Mechanical measurements were performed using an atomic force microscope. To indent the spheroids an in-house made colloidal probe was used. Force curves were collected using an appropriate setpoint and probe speed (depending on the stiffness of the spheroids). On each spheroid multiple force curves were collected. Collected curves were then processed using the JPK DP software. Young's modulus was extracted from the force curves. All experiments were performed in biological triplicate.
(§4) To generate 3D cultures mimicking the complexity and pathophysiology of in vivo tumors, spheroids were used (cfr. point 4). Spheroids are considered to better simulate cellular heterogeneity, nutrient and oxygen gradients, cell-cell interactions, cell-matrix interactions, gene expression profiles, stromal interactions, therapeutic responses, multicellular resistance, drug penetration and anti-apoptotic signaling.

CT5.3 hTERT colon CAFs = experiment: AFM spheroid stiffness, CT5.3 hTERT colon CAFs; type: cell-based, human; conditions: 1 μM, 48 h
Text: as §1
U-shaped, 384-well ULA plates (cat. no. MS-9384UZ, S-bio) were seeded with a suspension of cell-specific culture media with cells. Cells were allowed to form spheroids for an appropriate time under treatment conditions before use in experiments. Cell culture dishes (cat. no. 734-2814, VWR) were filled with collagen gel and placed at 37° C. for an appropriate time to allow solidification. […]

CAF03 glioblastoma CAFs = experiment: AFM spheroid stiffness, CAF03 glioblastoma CAFs; type: cell-based; conditions: 1 μM, 48 h
Text: as §1, §2, §3, §4

[1] = system: primary human atrial fibroblasts; experiment: AFM spheroid stiffness, primary human atrial fibroblasts; type: cell-based; conditions: 1 μM, 48 h
Protocol: Selectivity for CAFs with respect to normal fibroblasts and other cell types was assessed by performing an identical experiment with normal fibroblasts and other cell types, where compounds were considered selective for CAFs if they only modulate CAF stiffness.
as §2, §3, §4

4T1-luc cells = experiment: 4T1-based intraductal model for triple-negative breast cancer: metastases; type: in vivo, BALB/c mice; conditions: oral in Medigel, 100 mg/kg three times per day; 6 w p.i.; compared to DMSO
Protocol: Intraductal inoculations were performed in the third mammary gland pair of lactating female mice. In order to become lactating, 8-w-old female BALB/c mice were mated with male BALB/c mice of the same age and pups were weaned 12-14 d after delivery. One hour after weaning, lactating females received inhalation anesthesia using a mixture of oxygen and isoflurane (2-3%) and were subsequently inoculated through the mammary teat canal using a 32-gauge blunt needle with 5×10^4 4T1-luc cells suspended in a 100 μl mixture of PBS and Matrigel® (1:10; Corning, Bedford, MA, USA). All necessary materials for inoculation were pre-cooled to avoid Matrigel® coagulation. […]
Compounds were dissolved in DMSO. […] The amount of Medigel given to the mice was weekly determined and depended on the mean mouse body weight and consumption. […]
Body weight and body temperature were measured every day during the first week p.i., and once a week during the following 5 weeks (i.e. up to 6 w p.i.) using a digital weighing scale and a rectal temperature probe, respectively. As a measurement of primary tumor growth, primary tumor volumes were weekly monitored using a digital caliper and 4T1-luc-derived bioluminescence in primary tumors was monitored at 1, 3 and 6 w p.i. using the IVIS lumina III system (PerkinElmer, Zaventem, Belgium). […]

[2] = 4T1-based intraductal model: tolerability; type: in vivo; conditions: oral in Medigel, 100 mg/kg three times per day; weekly evaluation across 6 w study period
Protocol: Compounds were dissolved in DMSO. The compound solution was subsequently aspired using a 1 mL syringe and an 18 G (pink) needle, including additional air to help eject all the solution and avoid retention of compound in the dead volume. The solution was injected into a Medigel in five parts at five different sites and a volume of gel was aspired and reinjected into the cup at the last site to rinse the dead volume of the syringe. The medication was shaken vigorously afterwards and visually examined for even dispersion of compound. Mice received freshly prepared cups with medication every 48 h and gels were placed in gel cup holders to avoid contact with bedding material and absorbent shavings in the mouse cage. The amount of Medigel given to the mice was weekly determined and depended on the mean mouse body weight and consumption. The dosing level was kept constant at 100 mg/kg three times per day.
Body weight and body temperature were measured every day during the first week p.i., and once a week during the following 5 weeks (i.e. up to 6 w p.i.) using a digital weighing scale and a rectal temperature probe, respectively. As a measurement of primary tumor growth, primary tumor volumes were weekly monitored using a digital caliper and 4T1-luc-derived bioluminescence in primary tumors was monitored at 1, 3 and 6 w p.i. using the IVIS lumina III system (PerkinElmer, Zaventem, Belgium). To perform in vivo imaging, mice were injected with 200 μl D-luciferin suspended in PBS (2 mg/100 μl; Gold Biotechnology, St. Louis, MO) and images were acquired 10 min later under inhalation anesthesia. To perform ex vivo imaging, mice were sedated with a mixture of 100 mg/kg ketamine (Ketamidor, Ecuphar nv/sa, Oostkamp, Belgium) and 10 mg/kg xylazine (Xylazini Hydrochloridum, Val d'HonyVerdifarm, Beringen, Belgium) and subsequently sacrificed through cervical dislocation. Images of bioluminescent signals in isolated primary tumors, spleens and metastases-bearing organs (including axillary lymph nodes, lungs and liver) were quickly acquired using the IVIS system. Primary tumors and spleens were also weighed using a digital weighing scale. Analysis of the in vivo and ex vivo bioluminescent signals was performed using the living image software 4.7.2.

Compound | Young's modulus / spheroid stiffness, concentration range (13B2 hTERT breast CAFs; 30 nM-3 μM, 48 h) | Young's modulus / spheroid stiffness (13B2 hTERT breast CAFs) | spheroid stiffness (CT5.3 hTERT colon CAFs) | spheroid stiffness (CAF03 glioblastoma CAFs) | spheroid stiffness [1] | metastatic burden in lung, liver and axillary lymph node metastases (ex-vivo bioluminescence) (4T1-luc cells) | Body temperature [2] | Body weight [2]
COc1cc(C(=O)/C=C/c2ccc(F)cc2)cc(OC)c1OC [Compound A1, 3-(4-Fluorophenyl)-1-(3,4,5-trimethoxyphenyl)prop2-en-1-one] | dose-response behavior | significant decrease; also recorded: active | decreased | decreased; also recorded: active | did not alter; also recorded: no effect | overall reduction | no significant variation | no significant variation
COc1cc2oc(-c3ccc(F)cc3)cc(=O)c2c(OC)c1OC [Compound B1, 2-(4-Fluorophenyl)-5,6,7-trimethoxy-4H-chromen-4-one] | – | significant decrease; also recorded: active | decreased | active | did not alter; also recorded: no effect | overall reduction | no significant variation | no significant variation
